Read-outs that look alike come from different tables or passages of the source.
Key:
[1] = Calcium ion sensitivity, modified Hart method; assay type: physicochemical; conditions: for Ca + 2 Needed for Prec.: titration with calcium ion solution, visual cloudiness endpoint
Method: The surfactant solution was titrated with a calcium ion solution. The endpoint was determined by visual observation of the cloudiness of the surfactant solution.

[2] = Hydrolytic stability at pH 9, 40° C. by reverse phase HPLC; assay type: physicochemical; conditions: 5×10^-4 M in NaHCO3 buffer with 5% CH3CN, 500 µM
[3] = Critical micelle concentration by surface tension (Wilhemy plate method); assay type: physicochemical
Text: The CMC is defined as the concentration of a surfactant at which it begins to form micelles in solution rather than precipitate. Specifically, materials that contain both a hydrophobic group and a hydrophilic group, (such as surfactants), will tend to distort the structure of the solvent (i.e, water) they are in and, therefore, increase the free energy of the system. They therefore, concentrate at the surface, whereby orienting so that their hydrophobic groups are directed away from the solvent, the free energy of the solution is minimized. Another means of minimizing the free energy can be achieved by the aggregation of these surface-active molecules into clusters or micelles with their hydrophobic groups directed toward the interior of the cluster and their hydrophilic groups directed toward the solvent.
The value of the CMC is determined by surface tension measurements using the Wilhemy plate method. While not wishing to be bound by theory, it is believed that a low CMC is a measure of surface activity (i.e, lower CMC of one surfactant versus another indicates the surfactant with lower CMC is more surface active). In this regard, it is believed that lower CMC signifies that lesser amounts of a surfactant are required to provide the same surfactancy benefits as a surfactant with higher CMC.

zein = tested on: zein; design: species or system maize
Method: Specifically, the lower the amount of zein protein dissolved, usually the milder a surfactant is. Conversely, the more zein dissolved, typically the more irritating the surfactant is. In order to test irritancy potential, a 1% solution of surfactant (30 mls) was added to 1.5 g zein and stirred at room temperature for 1 hr. Residual zein was collected and dried to constant weight. Differences between starting and residual weights were used to calculate % zein dissolved.

[4] = Foam height, Ross-Miles method; assay type: physicochemical; conditions: 45° C., water with 120 ppm calcium hardness; for Foam Ht., 10 min Ht.: after 10 minutes
[5] = Krafft point of 1% dispersion of surfactant in water; assay type: physicochemical; conditions: for Krafft Pt.: 1% dispersion in water; for Krafft point (in words): compared with SLI
Method: The temperature at and above which surfactants begin to form micelles instead of precipitates is referred to as Krafft point (Tk) and at this temperature the solubility of an ionic surfactant becomes equal to its CMC.
Krafft point was measured by preparing a 1% dispersion of the surfactant in water. If the surfactant was soluble at room temperature, the solution was cooled to 0° C. […] If it precipitated out, the solution was slowly warmed with stirring in a water bath. The temperature at which the precipitate dissolved was determined to be the Krafft point.
If the Krafft point was above room temperature, the solution was first heated rapidly to dissolve all the surfactant. It was then cooled until precipitation occurred, and was then slowly warmed to determine the Krafft point described above.

[6] = 1% solution of surfactant (30 mls), 1.5 g zein, room temperature, 1 hr

| Structure (SMILES) | Ca + 2 Needed for Prec. [1] [ppm] | Hydrolytic Stability, t 1/2 [2] | CMC [3] [mM] | % Zein Solub. (zein; [6]) [%] | Foam Ht., 10 min Ht. [4] | Foam Ht., Initial Ht. [4] | Krafft Pt. [5] [°C] | Calcium sensitivity (in words) ([1]; compared with non-carbonated isethionate (SLI)) | % Zein Solub. (zein) [%] | Krafft point (in words) [5] |
| --- | --- | --- | --- | --- | --- | --- | --- | --- | --- | --- |
| CCCCCCCCCCCCOC(=O)OC(C)CS(=O)(=O)O (stereo not shown) [SIDC, Sodium 2-sulfoisopropyl dodecyl carbonate] | 2000 | 286 h | 2.39 | 51 | 161 mm | 165 mm | 15 | – | – | – |
| CCCCCCCCCCCCOC(=O)OCCS(=O)(=O)O.[Na] | 150 | 55.2 h | 2.52 | – | 149 mm | – | 24 | greater calcium insensitivity than the ester SLI | 49 | same Krafft point as the SLI |
| CCCCCCCCCCC(C)OC(=O)OC(C)CS(=O)(=O)O (stereo not shown) [SI2DC, Sodium 2-sulfoisopropyl 2-dodecyl carbonate] | 2500 | ≈ 70 Days | 2.6 to 2.8 | 49 | 149 mm | 156 mm | 30 | – | – | higher |
| CCCCCCCCCCCCOCCOCCOC(=O)OCCS(=O)(=O)O [SED(2EO)C, Sodium 2-sulfoethyl dodecyl (2EO) carbonate] | – | – | – | 25 | 160 mm | 165 mm | – | – | – | – |
| CCCCCCCCCCC(C)OC(=O)OCCS(=O)(=O)O (stereo not shown) [SE2DC, Sodium 2-sulfoethyl 2-dodecylcarbonate] | > 2700 | 223 h | 3.7 to 4.0 | 47 | 160 mm | 162 mm | 0 | – | – | – |
| CCCCCCCCCCCCOCCOCCOCCOCCOC(=O)OCCS(=O)(=O)O [SED(4EO)C, Sodium 2-sulfoethyl dodecyl (4EO) carbonate] | – | – | – | 17 | 152 mm | 158 mm | – | – | – | – |
| CCCCCCCCCCCCOC(=O)OC(CC)CS(=O)(=O)O (stereo not shown) [S2DBC, Sodium 2-(1-sulfo)butyl dodecyl carbonate] | 725 | 1030 h | 1.46 | 41 | 142 mm | 166 mm | 0 | – | – | – |
| CCCCCCCCCCCC(=O)OCCS(=O)(=O)O [SLI, sodium lauroyl isethionate, reference compound] | 51 | 24 h | 6.2 | – | negligible | negligible | 24 | – | – | – |

Reference: US5232633A, “Sulfoethyl carbonate wetting agents and their use in detergent compositions” (priority 1992, dated 1993)
